Results taken from patent publication US10195284B2, “Compositions and methods for controlled localized delivery of bone forming therapeutic agents” (University of Rochester, priority 2013, dated 2019).
“And” between values parts separate entries of the source, which are not always exact repeats. Equal values may be shown once. Read-outs that look alike come from different tables or passages of the source. Ends that are not written are not given here.

Assays:
TRAP protein = biological target: T1, TRAP protein (Homo sapiens, UniProt P13686); experiment: SPR affinity of peptide-functionalized polymers for TRAP, initial rate analysis of sensorgrams; format: binding; conditions: for SPR binding response to TRAP: sensorgrams
T1 sequence (P13686 22-325): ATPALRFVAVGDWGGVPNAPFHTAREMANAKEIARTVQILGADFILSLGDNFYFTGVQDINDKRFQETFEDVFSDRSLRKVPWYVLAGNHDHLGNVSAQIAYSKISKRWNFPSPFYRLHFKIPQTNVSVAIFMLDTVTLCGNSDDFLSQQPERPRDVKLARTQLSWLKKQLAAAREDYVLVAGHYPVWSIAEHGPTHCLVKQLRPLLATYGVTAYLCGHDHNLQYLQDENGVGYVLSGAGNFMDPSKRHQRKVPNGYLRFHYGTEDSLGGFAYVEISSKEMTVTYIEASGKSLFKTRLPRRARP
Experimental: Surface plasmon resonance (SPR) is used to assess the affinity of peptide-functionalized polymers for TRAP. Series S Sensor CM5 Chips are functionalized with TRAP via 1-ethyl-3-(3-dimethylaminopropyl) carbodiimide (EDC)/N-hydroxysuccinimide (NHS) chemistry. Briefly, the chips, which have a carboxymethylated dextran functionality, are activated through the introduction of NHS and EDC. After activation, TRAP protein, at 30 μg/mL in sodium acetate (pH=5), is introduced to the surface. Ethanolamine-hydrochloric acid is used to quench unreacted carboxysuccinimide groups. Polymers are dissolved in running buffer of PBS with 0.005% Tween20. Polymers are analyzed in duplicate at different concentrations. Surface regeneration is achieved using 1-10 mM NaOH solutions as necessary. […] Sensorgram data (FIG. 22) are exported from the SPR evaluation software after smoothing data of injection events and analyzed. Response units (RU) are converted into concentrations for rate analysis using the equation: S[M]=RU/60000 MW
Where S is the concentration of polymer bound to the TRAP-functionalized surface and MW is the molecular weight of the polymer. The binding rates of polymers to TRAP are determined in the initial linear portion of association, within two seconds of the start of injection. The reciprocals of binding rates are plotted against the reciprocals of polymer concentrations to obtain a linear relationship, generalized in the equation: Vi^−1=KDSi^−1Vm^−1Vm^−1
Where Vi is the binding rate for each i concentration of polymer and Vm is the maximum binding rate of polymer to TRAP. This relationship identifies the KD for each polymer (Table 4). Only TBP-functionalized polymers show affinity for TRAP (FIG. 22), as control (SCP-functionalized and PEG) polymer show no positive binding response (FIG. 23A through FIG. 23C).

[1] = biological target: T2, tartrate-resistant acid phosphatase (TRAP) (Homo sapiens, UniProt P13686); experiment: Surface plasmon resonance (SPR) affinity of peptides and peptide-functionalized polymers for TRAP, binding-curve fit
T2 sequence (P13686 22-325): T1 sequence (P13686 22-325)
Experimental: Surface plasmon resonance (SPR) is used to assess the affinity of peptides for TRAP. Series S Sensor CM5 Chips are functionalized with TRAP via 1-ethyl-3-(3-dimethylaminopropyl) carbodiimide (EDC)/N-hydroxysuccinimide (NHS) chemistry. Briefly, the chips, which have a carboxymethylated dextran functionality, are activated through the introduction of NHS and EDC. After activation, TRAP protein, at 30 μg/mL in sodium acetate (pH=5), is introduced to the surface. Ethanolamine-hydrochloric acid is used to quench unreacted carboxysuccinimide groups. Peptides are dissolved in running buffer of PBS with 0.005% Tween20. Peptides are analyzed in duplicate at different concentrations. Surface regeneration is achieved using a combination of 1 and 2 M NaCl and 1-50 mM NaOH solutions as necessary.
In SPR, the binding of any molecules to the surface of the sensor chips results in a change in the angle of incident light reflection, allowing highly-sensitive detection of miniscule amounts of ligand binding to the surface. Target affinity can be determined by introducing increasing concentrations of the ligand to the surface. Higher concentrations of samples elicited larger responses. The binding response was measured and plotted against concentration (FIG. 4), allowing for a fitting of the data by a binding curve. From this fitting, values such as KD can be determined. Through this technique, the affinity of TBP and SCP was analyzed. […] While not wishing to be bound by any particular theory, a possible, but improbable, cause for difference in affinity is the inclusion of the glycine residue on the carboxylic end of the synthesized peptide used herein. Despite this addition, the order of the original sequence is preserved, and glycine is a small, uncharged and nonpolar amino acid. […] In prior studies using phage display, five copies of the peptide are present and exposed (Sheu et al., 2002, Journal of Bone and Mineral Research, 17(5):915-922). Therefore, part of the higher affinity seen in the phage display experiments could be due to the multivalent nature of the peptide on the phage.
Quantitative analyses of peptide and polymer affinities were performed using SPR. […] The binding of any molecules to the surface of the sensor chips results in a change in the angle of incident light reflection, allowing highly-sensitive detection of miniscule amounts of ligand binding to the surface. Target affinity can be determined by introduction of increasing concentrations of the molecule to the surface (FIG. 38A and FIG. 38B). Typically higher concentrations of samples elicited larger responses, with a larger response from polymers at lower concentrations in comparison to the TBP alone. […] Furthermore, polymer samples required the application of regeneration buffers, ranging from a mild buffer of 500 mM NaCl to a harsher buffer of 5 mM NaOH, to return the signal to previous levels. The binding response is measured and plotted against concentration, allowing for a fitting of the data by a binding curve. From this fitting, values such as the dissociation constant (KD) value can be determined. Through this technique, the affinity of peptides and peptide-functionalized polymers were analyzed. […] However, inclusion of peptide functionalities results in substantial increases in TRAP affinities (KD˜7.1-21 μM). […] While not wishing to be bound by any particular theory, a possible, but improbable, cause for difference in affinity is the inclusion of the glycine residue on the carboxylic end of the synthesized peptide used herein. Despite this addition the order of the original sequence is preserved and glycine is a small, uncharged and nonpolar amino acid. […] In prior studies using phage display, five copies of the peptide are present and exposed (Sheu et al., 2002, Journal of Bone and Mineral Research, 17(5): 915-922). Therefore part of the higher affinity seen in the phage display experiments could be due to the multivalent nature of the peptide on the phage. […]

[2] = Bone resorption pit binding of fluorescently labeled peptides, confocal imaging; parameters: species or system human; conditions: fluorescently labeled peptide, overnight incubation
Experimental: Equal concentrations of fluorescently labeled TBP and SCP are prepared in 1× phosphate-buffered saline (PBS). Bone wafers are cut from cortical bone obtained from the femur of a human donor cadaver and incubated in peptide solutions overnight, washed twice with 1×PBS, and then visualized via confocal imaging. Stacked sections are compressed into 2D images to allow for qualitative analysis as in FIG. 3A through FIG. 3D. […] Qualitatively, no binding of SCP is detected (FIG. 3D).

β-catenin in MSCs = experiment: β-catenin agonism and cellular uptake of NPs in MSCs; format: cell-based; conditions: over 5 days of treatment
Experimental: To investigate the intracellular accessibility of this NPs, polymers were labeled with fluorescein isothiocyanate (FITC) fluorophore and incubated with MSCs (FIG. 44B). […] To validate β-catenin agonism of NP delivered GSK3β inhibitor XXVII, cells were treated with free GSK3β inhibitor XXVII and NP delivered GSK3β inhibitor XXVII.

[3] = system: Mouse osteoblasts (MC3T3E1); experiment: Cytocompatibility of peptide-functionalized polymers, Picogreen DNA assay; format: cell-based; conditions: 0.1 mM and 10 mM, 7 days, normalized to media alone
Experimental: Mouse osteoblasts (MC3T3E1) were maintained in alpha minimum essential media (α-MEM, Gibco), containing 10% fetal bovine serum (FBS, Invitrogen) and 1% penicillin-streptomycin-fungizone at 37° C. and 5% CO2. Cells were utilized at passage 5. To assess the cytocompatibility of peptide-functionalized polymers, cells were seeded in a 48 well plates at 10,000 cells/well and allowed to adhere overnight. Cells were treated with media alone or with peptide or peptide-functionalized polymers (0.1 mM and 10 mM) for 7 days, with media exchanges every two days. These concentrations employed are far higher than expected to be necessary for future uses and allowed for isolation of the maximum tolerated doses in vitro. After seven days of exposure, cells were washed, lysed by sonication, and analyzed for DNA concentration using the Picogreen Assay (Invitrogen). Results were normalized to cells treated with media alone.

[4] = Bone targeting of fluorescently labeled polymer therapeutics on osteoclast-resorbed bone wafers; format: binding, bovine
Experimental: Bovine cortical bone is cut into 5-mm square, 0.5-mm thick wafers using a low speed saw with a diamond wafering blade. Bone wafers are boiled in ddH2O for 15 minutes, placed in 96-well plates, sterilized in 70% ethanol for half an hour on each side, washed thrice in 1×PBS, and incubated in alpha minimum essential medium (α-MEM) for at least 1 hour at 37° C. before cell seeding.
Monocytes are freshly isolated from the spleens of mice, filtered twice with a 40 μm cell strainer, collected via centrifugation (5 minutes, 1000 rpm), and re-suspended in sterile filtered mouse red blood cell lysis buffer for 10 minutes at room temperature. After neutralizing lysis buffer with 1×PBS, monocytes are collected via centrifugation and washed in α-MEM containing 10% fetal bovine serum, 1% penicillin-streptomycin-fungizone, 1% GlutaMAX, and 1% non-essential amino acids before re-suspension in medium containing 100 ng mL^−1 M-CSF conditioned medium (Takeshita et al., 2000, J Bone Miner Res 15:1477). Monocytes are seeded in 96-well plates on the tissue culture surface or on prepared bovine cortical bone wafers at 2×10^5 cells well^−1 (1×10^6 cells mL^−1). After 3 days of incubation at 37° C. and 5% CO2, medium is supplemented with 1 ng mL^−1 receptor activator of nuclear factor κB ligand (RANKL) to induce osteoclast differentiation. […]

[5] = system: areas with cathepsin K and osteoclast activity at calvarial defect; experiment: Co-localization of polymers to actively remodeling bone, two-photon microscopy of cranial window defect; format: in vivo, mice; conditions: 5 mg kg^−1 intraperitoneal, imaged thirty minutes later
Experimental: A thinned-skull cranial window is produced in mice as previously described (Yang et al., 2010, Nat Protoc 5:201). Briefly, a 500-μm diameter defect is made in the skull of mice and covered with a glass coverslip. The night before imaging, mice are injected intraperitoneal with 100 μL reconstituted cathepsin K probe in 1×PBS, prepared according to the manufacturer's protocol. At times of 3 and 8 days post-procedure, 5 mg kg^−1 of fluorescently-labeled pTBP, pSCP, or PEG in saline is injected intraperitoneal and imaged thirty minutes later using two-photon microscopy (Olympus Fluoview). Cathepsin K, a cysteine protease, is secreted by osteoclasts; therefore, TRAP is expected to be present in areas with cathepsin K activity. […] Bone drilling defects have been used previously to investigate osteoclast activity, with osteoclast accumulation at the defect evident from positive TRAP staining (Tanaka et al., 2010, J Biomed Mater Res, 93A(2): 469-474). […] Other live imaging modalities and sections of sacrificed mice are used to track biodistribution to other organs. Since the amino acid sequence of human, mouse, and rat TRAP is 89-94% homologous (Lamp and Drexler, 2000, Leukemia Lymphoma, 39(5-6): 477-484), it is probable that TBP-functionalized polymer therapeutic affinity to TRAP in mice can be translated into humans.

[6] = system: β-catenin and ALP in osteoblasts; experiment: BIO treatment of osteoblasts, β-catenin levels and ALP production; format: cell-based; conditions: 24 hours treatment
Experimental: Data represents mean±standard deviation for 3 trials. *p<0.05 versus control, #p<0.05 versus 2 μM BIO (n=5).
Several BIO-releasing polymers that are the correct molecular weight to enhance circulation time and avoid renal clearance have been successfully synthesized. […] Finally, released BIO biological activity is confirmed versus the free, unconjugated molecule and rescue of β-catenin signaling in osteoblasts is verified.

[7] = Vougogiannopoulou et al., 2008; cited from earlier work
[8] = TRAP-functionalized CM5 chip, n = 2, Ave. ± StDev, read-out: KD

With 20% TBP (TPLSYLKGLVTVG) the Kd (TRAP protein; initial rate analysis of SPR sensorgrams) was 70 µM.

With “20% peptide-functionalized polymer (TPLSYLKGLVTVG)” the Kd [1, 8] was 7.5 µM.

With “10% SCP (VPVGTLSYLKLTG) [reference compound]” the “SPR binding response to TRAP” value (TRAP protein) was “negative responses”.

For “20% SCP (VPVGTLSYLKLTG) [reference compound]”, the “SPR binding response to TRAP” value (TRAP protein) was “negative responses”.

In the case of H-TPLSYLKGLVTVG [TBP], the Kd ([1]; binding-curve fit, read-out: KD for TRAP) is reported as ~200 µM and ~700 µM, the Kd ([1]; read-out: affinity for TRAP measured with SPR) is reported as 795 µM and the “binding to bone resorption pits” value [2] is reported as “specific binding”.

For 10% TBP (TPLSYLKGLVTVG), the “SPR binding response to TRAP” value (TRAP protein) was “positive response”.

With CN1CCN(S(=O)(=O)c2ccc(-c3cnc(N)c(C(=O)Nc4cccnc4)n3)cc2)CC1 [GSK3β inhibitor XXVII, 3-amino-6-{4-[(4-methyl-1-piperazinyl)sulfonyl]phenyl}-N-(3-pyridinyl)-2-pyrazinecarboxamide] the “β-catenin agonism / activation” value (β-catenin in MSCs) was “potent agonist of β-catenin”.

For “10% peptide-functionalized polymer (TPLSYLKGLVTVG)”, the Kd [1, 8] was 12.7 µM and the “cytocompatibility / cytotoxic effects” value [3] was “worst cytocompatibility of all polymers tested”.

With “scrambled control peptide, VPVGTLSYLKLTG (SEQ ID NO: 2) (VPVGTLSYLKLTG-OH; also: methacrylamide introduced on amine end for polymer incorporation) [SCP, reference compound]” the “affinity for TRAP measured with SPR” value [1] was “no affinity”, the “KD for TRAP” value ([1]; binding-curve fit) was “did not enable fitting of a binding curve or calculations of affinity” and the “binding to bone resorption pits” value [2] was “no binding”.

For “TBP-functionalized polymer therapeutics (TPLSYLKGLVTVG)”, the “localization to resorption pits” value ([4]; resorbed bone wafers, fluorescently labeled) was “localize to resorption pits”, the “affinity for untreated bone” value ([4]; untreated bone wafers) was “No affinity” and the “colocalization with cathepsin K and osteoclast activity” value [5] was “colocalize to areas with cathepsin K and osteoclast activity”.

For O=C1Nc2cc(Br)ccc2/C1=C1/Nc2ccccc2/C1=N\O [BIO, 6-bromoindirubin-3′-oxime], the ALP production ([6]; analyzed 7-days after treatment) is listed as “increased”, the β-catenin levels ([6]; just after treatment) is listed as “increased” and the water solubility [7] is listed as “poor water solubility”.
